In PubChem BioAssay (NCI) one finds GI50 and TGI data, which are given here for eight compounds.

Structures are written as SMILES.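 96-well plates; 48 h exposure; 5 concentrations. Endpoints by linear interpolation between flanking doses. Not reached: highest tested concentration assigned. At the GI50, growth is halved. TGI marks complete inhibition of growth.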

What all share (experiment): inhibition of tumour cell growth, NCI panel, 48 h
Experiment [1] concerns MOLT-4 leukemia.
Experiment [2] deals with T-47D breast.
Experiment [3] deals with MALME-3M melanoma.
Experiment [4] concerns SF-295 CNS.
For experiment [5], the system named is RPMI-8226 leukemia.
Experiment [6] concerns A498 renal.
Experiment [7] concerns SF-539 CNS.
The subject of experiment [8] is PC-3 prostate.
Experiment [9] relates to SNB-19 CNS.
Experiment [10] deals with SK-MEL-28 melanoma.

Consider `CC12OC(c3ccccc3)=CC(c3ccc(Cl)cc3)=C1C(c1ccccc1)=CC2=O` (centres undefined), for which the GI50 was 20.6 µM in experiment [1]; 35.8 µM in experiment [2]; over 100 µM in experiment [3]; 25 µM in experiment [4]; 17.3 µM in experiment [5]; over 100 µM in experiment [6]. For the same compound, the GI50 was over 100 µM in [7], 34.4 µM in experiment [8], over 100 µM in experiment [9] and 66.5 µM in [10]. The TGI is 75.6 µM in [1]; over 100 µM in [2]; over 100 µM in experiment [3]; over 100 µM in experiment [4]; 47.2 µM in [5]; over 100 µM in experiment [6]. Moreover, the TGI in experiment [7], in experiment [8], in experiment [9] and in experiment [10] was over 100 µM each time.
As to `CC[C@H](NC(=O)[C@H](C)NC)C(=O)N1C[C@@H](O)C[C@H]1Cc1c(-c2[nH]c3cc(F)ccc3c2C[C@@H]2C[C@H](O)CN2C(=O)[C@H](CC)NC(=O)[C@H](C)NC)[nH]c2cc(F)ccc12`, the GI50 was 74.4 µM in [1]; over 100 µM in experiment [2]; over 100 µM in experiment [3]; over 100 µM in [4]; 12.8 µM in [5]; over 100 µM in [6]. Further, the GI50 is under 0.01 µM in experiment [7], over 100 µM in [8], over 100 µM in experiment [9] and over 100 µM in experiment [10]. In addition, the TGI is over 100 µM in [1]; over 100 µM in experiment [2]; over 100 µM in experiment [3]; over 100 µM in experiment [4]; 98 µM in [5]; over 100 µM in [6]. Besides, the TGI in experiment [7] was 0.146 µM; in experiment [8] it was over 100 µM; in [9] it was over 100 µM; in experiment [10], over 100 µM.
Regarding `CCN(CC)c1cc2c3c(c1)CCCN3CCC2`, the TGI in experiment [1], in [2], in [3], in experiment [4], in experiment [5] and in experiment [6] was over 10 µM throughout. The TGI in [7], in experiment [8], in [9] and in experiment [10] was over 10 µM each time.
As to `O=c1c(Oc2ccc(F)cc2F)cc2cnc(NC3CCOCC3)nc2n1C1CCS(=O)(=O)CC1`, the GI50 in experiment [1], in experiment [2], in experiment [3], in [4], in experiment [5] and in [6] was over 25 µM each time. Moreover, the GI50 in experiment [7], in experiment [8], in experiment [9] and in experiment [10] was over 25 µM each time. Also, the TGI in experiment [1], in [2], in experiment [3], in [4], in [5] and in [6] was over 25 µM throughout. Further, the TGI in experiment [7], in experiment [8], in [9] and in [10] was over 25 µM throughout.
With `CC(=O)[O-].CC(=O)[O-].[Pt+2].c1cscn1.c1cscn1`, the GI50 in experiment [1] was 36.1 µM; in experiment [2], 62 µM; in experiment [3], over 100 µM; in experiment [4], over 100 µM; in experiment [5] it was 57.7 µM; in [6] it was over 100 µM. Moreover, the GI50 in [7] was 48.3 µM; in experiment [8], over 100 µM; in experiment [9] it was over 100 µM; in experiment [10] it was over 100 µM. Also, the TGI in experiment [1], in [2], in [3], in experiment [4], in experiment [5] and in experiment [6] was over 100 µM throughout. Further, the TGI in [7], in experiment [8], in experiment [9] and in [10] was over 100 µM in each case.
As to `Cc1nc2sc(C(=O)Nc3cccc(Cl)c3C)c(N)c2cc1C(=O)/C=C/c1ccccc1`, the GI50 in [1] is 0.76 µM; in experiment [2], 0.767 µM; in experiment [3] it was 0.315 µM; in experiment [4], 0.446 µM; in experiment [5] it was 0.14 µM; in [6], 0.298 µM. Besides, the GI50 is 0.595 µM in [7], 0.33 µM in [8], 0.651 µM in experiment [9] and 0.641 µM in [10]. Besides, the TGI in experiment [1] is over 50 µM; in experiment [2], 2.4 µM; in [3], 4.47 µM; in [4] it was 2.1 µM; in [5], 0.465 µM; in [6], 1.4 µM. Further, the TGI was determined as 1.43 µM in experiment [7], 1.54 µM in [8], 3.11 µM in [9] and 2.88 µM in experiment [10].
As to `CN[C@@H](C)C(=O)N[C@H](C(=O)N1CCC[C@H]1C(=O)N[C@H]1c2ccccc2C[C@H]1OCC#CC#CCO[C@@H]1Cc2ccccc2[C@@H]1NC(=O)[C@@H]1CCCN1C(=O)[C@@H](NC(=O)[C@H](C)NC)C1CCCCC1)C1CCCCC1`, the GI50 was 1.92 µM in experiment [1]; 1.81 µM in [2]; under 0.01 µM in experiment [3]; 0.514 µM in experiment [4]; 1.44 µM in experiment [5]; 8.8 µM in experiment [6]. The GI50 in [7] is under 0.01 µM; in [8], 6.04 µM; in experiment [9], 3.24 µM; in [10], 1.8 µM. The TGI in experiment [1] stood at 4.57 µM; in experiment [2], 4.39 µM; in experiment [4] it was 20.8 µM; in experiment [5] it was 3.9 µM; in [6], 25.1 µM; in experiment [7] it was 1.28 µM. Further, the TGI in experiment [8] amounted to 18.7 µM; in experiment [9], 8.87 µM; in experiment [10], 3.55 µM.
As to `O=c1ccn(C2OC(CO)C(O)C2F)c(=O)[nH]1` (centres undefined), the GI50 in [1], in experiment [2], in experiment [3], in experiment [4], in [5] and in experiment [6] was over 1000 µM each time. In addition, the GI50 in experiment [7], in [8], in [9] and in [10] was over 1000 µM in each case. For the same compound, the TGI in experiment [1], in experiment [2], in experiment [3], in experiment [4], in experiment [5] and in experiment [6] was over 1000 µM each time. Further, the TGI in experiment [7], in experiment [8], in experiment [9] and in experiment [10] was over 1000 µM throughout.
